Measured values published in ChEMBL document CHEMBL6078637, “Cyclic Diguanylate G-Quadruplex Inducer-Quorum Sensing Inhibitor Hybrids as Bifunctional Anti-biofilm and Anti-virulence Agents Against Pseudomonas aeruginosa” (J Med Chem, 2024).
The source made the active and inactive calls. The calls are words filed in the database; no cut-off is given here.

Experiments:
[1] = Inhibition of quorum sensing system in Pseudomonas aeruginosa PAO1 harboring mini-ctx-lasB-lacZ at 10 uM measured after 16 hrs by ONPG test relative to control
[2] = test system: Pseudomonas aeruginosa; test: Antibiofilm activity against Pseudomonas aeruginosa PAO1 harboring wspF mutant assessed as inhibition rate at 1.25 uM incubated for 24 hrs by absorbance based assay relative to control; type: functional
[3] = test system: Pseudomonas aeruginosa; test: Antibiofilm activity against Pseudomonas aeruginosa PAO1 harboring wspF mutant assessed as inhibition rate at 10 uM incubated for 24 hrs by absorbance based assay relative to control; type: functional
[4] = test system: Pseudomonas aeruginosa; test: Antibiofilm activity against Pseudomonas aeruginosa PAO1 harboring wspF mutant incubated for 24 hrs by absorbance based assay; type: functional, organism-based; conditions: for IC50: PAO1, 24 h
[5] = test system: Pseudomonas aeruginosa; test: Antibacterial activity against Pseudomonas aeruginosa PAO1 incubated for 24 hrs by absorbance based assay; type: functional
[6] = test system: Pseudomonas aeruginosa; test: Antivirulence activity against Pseudomonas aeruginosa PAO1 assessed as reduction in elastase level incubated for 24 hrs by elastin-Congo red staining based analysis; type: functional, organism-based; conditions: dose <= 10.0 µM
[7] = test system: Pseudomonas aeruginosa; test: Antivirulence activity against Pseudomonas aeruginosa PAO1 assessed as reduction in rhamnolipid level incubated for 24 hrs by orcinol based analysis; type: functional, organism-based; conditions: dose <= 10.0 µM
[8] = test system: Pseudomonas aeruginosa; test: Antivirulence activity against Pseudomonas aeruginosa PAO1 assessed as reduction in pyocyanin level incubated for 24 hrs by absorbance based assay; type: functional, organism-based; conditions: dose <= 10.0 µM
[9] = test system: Pseudomonas aeruginosa; test: Antivirulence activity against Pseudomonas aeruginosa PAO1 assessed as reduction in elastase level at 10 uM incubated for 24 hrs by elastin-Congo red staining based analysis relative to control; type: functional; design: scale not given: the % may be the effect or the level left
[10] = test system: Pseudomonas aeruginosa; test: Antivirulence activity against Pseudomonas aeruginosa PAO1 assessed as reduction in rhamnolipid level at 10 uM incubated for 24 hrs by orcinol based analysis; type: functional, organism-based
[11] = test system: Pseudomonas aeruginosa; test: Antivirulence activity against Pseudomonas aeruginosa PAO1 assessed as reduction in hemolysin level at 10 uM preincubated for 24 hrs followed by addition of erythrocytes measured after 30 mins by absorbance based analysis relative to control; type: functional; design: scale not given: the % may be the effect or the level left
[12] = test system: Pseudomonas aeruginosa; test: Inhibition of beta-galactosidase in Pseudomonas aeruginosa PAO1 harboring mini-ctx-lacZ at 10 uM incubated for 6 hrs by ONPG test relative to control
[13] = test system: Pseudomonas aeruginosa; test: Inhibition of beta-galactosidase in Pseudomonas aeruginosa PAO1 harboring mini-ctx-lasB-lacZ at 10 uM incubated for 6 hrs by ONPG test relative to control
[14] = test system: Pseudomonas aeruginosa; test: Inhibition of beta-galactosidase in Pseudomonas aeruginosa PAO1 harboring mini-ctx-pqsA-lacZ at 10 uM incubated for 6 hrs by ONPG test relative to control
[15] = test system: Pseudomonas aeruginosa; test: Inhibition of beta-galactosidase in Pseudomonas aeruginosa PAO1 harboring mini-ctx-lasB-lacZ incubated for 6 hrs by ONPG test; conditions: dose <= 10.0 µM
[16] = test system: Pseudomonas aeruginosa; test: Inhibition of beta-galactosidase in Pseudomonas aeruginosa PAO1 harboring mini-ctx-pqsA-lacZ incubated for 6 hrs by ONPG test; conditions: dose <= 10.0 µM
[17] = test system: Pseudomonas aeruginosa; test: Inhibition of beta-galactosidase in Pseudomonas aeruginosa PAO1 harboring mini-ctx-rhlA-lacZ at 10 uM incubated for 6 hrs by ONPG test relative to control
[18] = test system: Pseudomonas aeruginosa; test: Inhibition of swarming motility of Pseudomonas aeruginosa PAO1 incubated overnight; type: functional, organism-based; conditions: dose <= 10.0 µM
[19] = test system: Pseudomonas aeruginosa; test: Inhibition of swimming motility of Pseudomonas aeruginosa PAO1 incubated overnight; type: functional, organism-based; conditions: dose <= 10.0 µM
[20] = test system: Pseudomonas aeruginosa; test: Inhibition of twitching motility of Pseudomonas aeruginosa PAO1 incubated overnight by crystal voilet staining based analysis; type: functional, organism-based; conditions: dose <= 10.0 µM
[21] = test system: Pseudomonas aeruginosa; test: Inhibition of swarming motility of Pseudomonas aeruginosa PAO1 at 10 uM incubated overnight; type: functional, organism-based
[22] = test system: Pseudomonas aeruginosa; test: Inhibition of swimming motility of Pseudomonas aeruginosa PAO1 at 10 uM incubated overnight relative to control; type: functional
[23] = test system: Pseudomonas aeruginosa; test: Inhibition of twitching motility of Pseudomonas aeruginosa PAO1 at 10 uM incubated overnight by crystal voilet staining based analysis; type: functional, organism-based
[24] = test system: DNA; test: Binding affinity to pBR322 DNA (unknown origin) assessed as DNA embedding toxicity at 50 uM preincubated for 10 mins followed by Topo I addition measured after 1 hr by TO dye based PAGE analysis; type: nucleic-acid assay; conditions: time 70.0 min
[25] = test system: DNA; test: Binding affinity to pBR322 DNA (unknown origin) assessed as DNA migration at 50 uM preincubated for 10 mins followed by Topo I addition measured after 1 hr by TO dye based PAGE analysis; type: nucleic-acid assay; conditions: time 70.0 min
[26] = Hemolytic activity in rabbit erythrocytes assessed as damage in cell membrane integrity at 100 uM incubated for 4 hrs by absorbance based assay; type: toxicity, Oryctolagus cuniculus; conditions: erythrocyte
[27] = test system: Vero; test: Cytotoxicity against African green monkey Vero cells at 12.5 uM incubated for 24 hrs by MTT assay; type: toxicity, cell-based; conditions: chlorocebus sabaeus
[28] = test system: Pseudomonas aeruginosa; test: Synergistic antibacterial activity against Pseudomonas aeruginosa PAO1 assessed as bacterial growth inhibition at 20 uM incubated for 24 hrs in presence of tetracycline by CFU counting method; type: functional, organism-based
[29] = Toxicity in Caenorhabditis elegans assessed as nematode survival upto 100 uM incubated for 96 hrs
[30] = Toxicity in Caenorhabditis elegans infected with Pseudomonas aeruginosa PAO1 assessed as nematode survival at 10 uM incubated for 48 hrs
[31] = Toxicity in Caenorhabditis elegans infected with Pseudomonas aeruginosa PAO1 assessed as nematode survival at 10 uM incubated for 48 hrs in presence of tetracycline
[32] = Toxicity in Caenorhabditis elegans infected with Pseudomonas aeruginosa PAO1 assessed as reduction in nematode mortality rate at 10 uM incubated for 48 hrs in presence of TOB; design: scale not given: the % may be the effect or the level left
[33] = Toxicity in Caenorhabditis elegans infected with hyper-biofilm phenotype Pseudomonas aeruginosa PAO1 harboring wspF mutant assessed as nematode death at 10 uM incubated for 48 hrs in presence of TOB
[34] = Toxicity in Caenorhabditis elegans infected with hyper-biofilm phenotype Pseudomonas aeruginosa PAO1 harboring wspF mutant assessed as nematode death at 10 uM incubated for 48 hrs in presence of tetracycline
[35] = test system: Pseudomonas aeruginosa; test: Synergistic inhibition of bacterial virulence of Pseudomonas aeruginosa PAO1 infected in Caenorhabditis elegans upto 10 uM incubated for 36 hrs in presence of tetracycline; type: functional, organism-based
[36] = test system: Pseudomonas aeruginosa; test: Synergistic inhibition of bacterial virulence of Pseudomonas aeruginosa PAO1 infected in Caenorhabditis elegans upto 10 uM incubated for 36 hrs in presence of TOB; type: functional, organism-based
[37] = test system: Pseudomonas aeruginosa; test: Synergistic inhibition of bacterial virulence of hyper-biofilm phenotype Pseudomonas aeruginosa PAO1 harboring wspF mutant upto 10 uM incubated for 36 hrs in presence of tetracycline; type: functional, organism-based
[38] = test system: Pseudomonas aeruginosa; test: Synergistic inhibition of bacterial virulence of hyper-biofilm phenotype Pseudomonas aeruginosa PAO1 harboring wspF mutant upto 10 uM incubated for 36 hrs in presence of TOB; type: functional, organism-based
[39] = test system: Pseudomonas aeruginosa; test: Antivirulence activity against Pseudomonas aeruginosa PAO1 assessed as reduction in pyocyanin level at 10 uM incubated for 24 hrs by absorbance based assay relative to control; type: functional; design: scale not given: the % may be the effect or the level left
[40] = test system: Pseudomonas aeruginosa; test: Downregulation of lasB mRNA level in Pseudomonas aeruginosa PAO1 at 10 uM by RT-qPCR analysis; type: functional, organism-based
[41] = test system: Pseudomonas aeruginosa; test: Downregulation of rhlA mRNA level in Pseudomonas aeruginosa PAO1 at 10 uM by RT-qPCR analysis; type: functional, organism-based
[42] = test system: Pseudomonas aeruginosa; test: Downregulation of rhlR mRNA level in Pseudomonas aeruginosa PAO1 at 10 uM by RT-qPCR analysis; type: functional, organism-based
[43] = test system: Pseudomonas aeruginosa; test: Downregulation of lasR mRNA level in Pseudomonas aeruginosa PAO1 at 10 uM by RT-qPCR analysis; type: functional, organism-based
[44] = test system: Pseudomonas aeruginosa; test: Downregulation of pqsR mRNA level in Pseudomonas aeruginosa PAO1 at 10 uM by RT-qPCR analysis; type: functional, organism-based
[45] = test system: Pseudomonas aeruginosa; test: Downregulation of pelA mRNA level in Pseudomonas aeruginosa PAO1 at 10 uM by RT-qPCR analysis; type: functional, organism-based
[46] = Toxicity in Caenorhabditis elegans infected with Pseudomonas aeruginosa PAO1 assessed as nematode survival at 2 ug incubated for 48 hrs; conditions: in vivo, at 2 µg

C[n+]1c(/C=C/c2c[nH]c3ccc(F)cc23)ccc2ccccc21.[I-]
inhibition [1]: 40.3%
inhibition at 1.25 µM [2]: ~21%
inhibition at 10 µM [3]: ~40%
inhibition [4]: Dose-dependent-effect
IC50 [4]: 23.4 µM
MIC [5]: > 128 µM
Activity [6]: Dose-dependent-effect
Activity [7]: Dose-dependent-effect
Activity [8]: Dose-dependent-effect
Activity [9]: 48.51%
Activity [10]: Active; Exhibited Relatively Modest Activity
Activity [11]: 51.3%
inhibition [12]: 8.03%
inhibition [13]: 30%
inhibition [14]: 30%
inhibition [15]: Dose-dependent-effect
inhibition [16]: Dose-dependent-effect
inhibition [17]: 10%
inhibition [18]: Dose-dependent-effect
inhibition [19]: Dose-dependent-effect
inhibition [20]: Dose-dependent-effect
inhibition [21]: Active; Inhibitory Effect Was Comparable To Qs Deficient Pao1 Double Mutant Lasi/Rhli
inhibition at 10 µM [22]: 22.4%
inhibition [23]: Active; Exhibited Only A Modest Impact
Activity [24]: Not toxic
Activity [25]: Not toxic
Activity [26]: Non-toxic
Activity [27]: Non-toxic
Activity [28]: Active
Activity [29]: Non-toxic
Activity [30]: Toxic
Survival [31]: 86.3%
Activity [32]: ~ 50%
Activity [33]: Non-toxic
Activity [34]: Non-toxic
Activity [35]: Active
Activity [36]: Active
Activity [37]: Active
Activity [38]: Active

C[n+]1c(/C=C/c2c[nH]c3ccccc23)ccc2ccccc21.[I-]
inhibition [1]: 44.5%
inhibition at 1.25 µM [2]: ~21%
inhibition at 10 µM [3]: ~40%
inhibition [4]: Dose-dependent-effect
IC50 [4]: 14.9 µM
MIC [5]: > 128 µM
Activity [6]: Dose-dependent-effect
Activity [7]: Dose-dependent-effect
Activity [8]: Dose-dependent-effect
Activity [9]: 59.02%
Activity [39]: ~40%
Activity [10]: Active; Exhibited Relatively Modest Activity
Activity [11]: 62.38%
inhibition [12]: 20.4%
inhibition [13]: 30%
inhibition [14]: 30%
inhibition [15]: Dose-dependent-effect
inhibition [16]: Dose-dependent-effect
inhibition [17]: 10%
inhibition [18]: Dose-dependent-effect
inhibition [19]: Dose-dependent-effect
inhibition [20]: Dose-dependent-effect
inhibition [21]: Active; Inhibitory Effect Was Comparable To Qs Deficient Pao1 Double Mutant Lasi/Rhli
inhibition at 10 µM [22]: 29.2%
inhibition [23]: Active; Exhibited Only A Modest Impact
Activity [40]: Active
Activity [41]: Active
Activity [42]: Active
Activity [43]: Active
Activity [44]: Active
Activity [45]: Active
Activity [24]: Not toxic
Activity [25]: Not toxic
Activity [26]: Non-toxic
Activity [27]: Non-toxic
Activity [28]: Active
Activity [29]: Non-toxic
Activity [30]: Toxic
Survival [31]: 95%
Activity [32]: ~ 50%
Activity [33]: Non-toxic
Activity [34]: Non-toxic
Activity [35]: Active
Activity [36]: Active
Activity [37]: Active
Activity [38]: Active

CN(C)[C@@H]1C(O)=C(C(N)=O)C(=O)[C@@]2(O)C(O)=C3C(=O)c4c(O)cccc4[C@@](C)(O)[C@H]3C[C@@H]12 [TETRACYCLINE]
MIC [5]: > 128 µM
Survival [46]: ~ 10%
